Experimental data: US20210338719A1 (SOCIETE DES PRODUITS NESTLE S.A., priority 2017, published 2021)

Assay: Oxidation of LC-PUFAs caused by iron source
Type: physicochemical
Conditions: iron source in composition containing LC-PUFAs

SMILES: O.O.O.O.O.O.O.O=S(=O)([O-])[O-].[Fe+2] [ferrous sulphate heptahydrate]
- Oxidation of LC-PUFAs: significant oxidation of LC-PUFAs

SMILES: O.O=S(=O)([O-])[O-].[Fe+2] [ferrous sulphate monohydrate]
- Oxidation of LC-PUFAs: no significant oxidation of LC-PUFAs
